In ChEMBL document CHEMBL1122681, “(Acylaryloxy)acetic acid diuretics. 5. [(2-Alkyl- and 2,2-disubstituted-1,3-dioxo-5-indanyl)oxy]acetic acids” (J Med Chem, 1984):

What was measured:
[1] = system: Pan troglodytes; experiment: Compound was evaluated for diuretic activity in chimpanzee measured as clearance of […] and urate after intravenous administration of 1.25 mg/kg; assay type: functional, Urine
[2] = system: Pan troglodytes; experiment: Compound was evaluated for diuretic activity in chimpanzee measured as increase in the number of microequivalents of Na+ /min at 1.25 mg/kg; assay type: functional, Urine
[3] = system: Pan troglodytes; experiment: Compound was evaluated for diuretic activity in chimpanzee measured as increase in the number of microequivalents of K+ /min at 1.25 mg/kg; assay type: functional, Urine
[4] = system: Pan troglodytes; experiment: Compound was evaluated for diuretic activity in chimpanzee measured as increase in the number of microequivalents of K+ /min at 5 mg/kg; assay type: functional, Urine
[5] = system: Pan troglodytes; experiment: Compound was evaluated for diuretic activity in chimpanzee measured as increase in the number of microequivalents of Cl- electrolyte/min at 1.25 mg/kg; assay type: functional, Urine
[6] = system: Pan troglodytes; experiment: Compound was evaluated for diuretic activity in chimpanzee measured as increase in the number of microequivalents of Na+ /min at 5 mg/kg; assay type: functional, Urine
[7] = system: Pan troglodytes; experiment: Compound was evaluated for diuretic activity in chimpanzee measured as increase in volume of urine at 5 mg/kg; assay type: functional
[8] = system: Canis familiaris; experiment: Compound was evaluated for diuretic activity, in female mongrel dogs by measuring amount of Na+ in urine after iv administration of 5 mg/kg (control/compound treatment results) Control = 22; assay type: functional, Canis lupus familiaris
[9] = system: Pan troglodytes; experiment: Compound was evaluated for diuretic activity in chimpanzee measured as clearance of […] and urate after peroral administration of 5 mg/kg; assay type: functional, Urine; settings: route oral
[10] = system: Canis familiaris; experiment: Compound was evaluated for diuretic activity, in female mongrel dogs by measuring amount of K+ in urine after iv administration of 5 mg/kg (control/compound treatment results) Control = 10; assay type: functional, Canis lupus familiaris
[11] = system: Pan troglodytes; experiment: Compound was evaluated for diuretic activity in chimpanzee measured as increase in the number of microequivalents of Cl- electrolyte/min at 5 mg/kg; assay type: functional, Urine
[12] = system: Canis familiaris; experiment: Compound was evaluated for diuretic activity, in female mongrel dogs by measuring amount of Cl- in urine after iv administration of 5 mg/kg (control/compound treatment results) Control = 4; assay type: functional, Canis lupus familiaris
[13] = system: Pan troglodytes; experiment: Compound was evaluated for diuretic activity in chimpanzee measured as increase in volume of urine at 1.25 mg/kg; assay type: functional
[14] = system: Canis familiaris; experiment: Compound was evaluated for diuretic activity, in female mongrel dogs by measuring volume of urine, after iv administration of 5 mg/kg (control/compound treatment results) Control = 1; assay type: ADME, organism-based, Canis lupus familiaris; set-up: dose 5 mg/kg, route intravenous; settings: dog, in vivo
[15] = system: Pan troglodytes; experiment: Compound was evaluated for diuretic activity in chimpanzee measured as increase in the number of microequivalents of Na+ /min at 1 mg/kg; assay type: functional, Urine
[16] = system: Pan troglodytes; experiment: Compound was evaluated for diuretic activity in chimpanzee measured as increase in the number of microequivalents of Cl- electrolyte/min at 1 mg/kg; assay type: functional, Urine
[17] = system: Rattus norvegicus; experiment: Compound was evaluated for diuretic activity administered orally in female rats measured as milliequivalents of Na+x 100 / cage at 27 mg/kg; assay type: functional, Urine; settings: route oral
[18] = system: Rattus norvegicus; experiment: Compound was evaluated for diuretic activity administered orally in female rats measured as milliequivalents of Na+x 100 / cage at 81 mg/kg; assay type: functional, Urine; settings: route oral
[19] = system: Rattus norvegicus; experiment: Compound was evaluated for diuretic activity administered orally in female rats measured as milliequivalents of K+x 100 / cage at 3 mg/kg; assay type: functional, Urine; settings: route oral
[20] = Volume of urine at 3 mg/kg; assay type: ADME, organism-based; set-up: dose 3 mg/kg; settings: in vivo
[21] = system: Canis familiaris; experiment: Compound was evaluated for diuretic activity, in female mongrel dogs by measuring volume of urine, after iv administration of 5 mg/kg (control/compound treatment results) Control = 2; assay type: ADME, organism-based, Canis lupus familiaris; set-up: dose 5 mg/kg, route intravenous; settings: dog, in vivo
[22] = organism: Canis familiaris; experiment: (§1) Volume of urine in dog; assay type: ADME, organism-based, Canis lupus familiaris; settings: in vivo
[23] = Volume of urine at 9 mg/kg; assay type: ADME, organism-based; set-up: dose 9 mg/kg; settings: in vivo
[24] = system: Canis familiaris; experiment: Compound was evaluated for diuretic activity, in female mongrel dogs by measuring amount of Na+ in urine after iv administration of 5 mg/kg (control/compound treatment results) Control = 24; assay type: functional, Canis lupus familiaris
[25] = system: Pan troglodytes; experiment: Compound was evaluated for diuretic activity in chimpanzee measured as clearance of […] and urate after intra venous administration of 1 mg/kg; assay type: functional, Urine
[26] = system: Rattus norvegicus; experiment: Compound was evaluated for diuretic activity administered orally in female rats measured as milliequivalents of Na+x 100 / cage at 3 mg/kg; assay type: functional, Urine; settings: route oral
[27] = system: Pan troglodytes; experiment: Compound was evaluated for diuretic activity in chimpanzee measured as increase in the number of microequivalents of K+ /min at 1 mg/kg; assay type: functional, Urine
[28] = Volume of urine at 81 mg/kg; assay type: ADME, organism-based; set-up: dose 81 mg/kg; settings: in vivo
[29] = system: Rattus norvegicus; experiment: Compound was evaluated for diuretic activity administered orally in female rats measured as milliequivalents of K+x 100 / cage at 27 mg/kg; assay type: functional, Urine; settings: route oral
[30] = system: Rattus norvegicus; experiment: Compound was evaluated for diuretic activity administered orally in female rats measured as milliequivalents of K+x 100 / cage at 81 mg/kg; assay type: functional, Urine; settings: route oral
[31] = system: Rattus norvegicus; experiment: Compound was evaluated for diuretic activity administered orally in female rats measured as milliequivalents of Cl-x 100 / cage at 81 mg/kg; assay type: functional, Urine; settings: route oral
[32] = system: Canis familiaris; experiment: Compound was evaluated for diuretic activity, in female mongrel dogs by measuring amount of Cl- in urine after iv administration of 5 mg/kg (control/compound treatment results) Control = 9; assay type: functional, Canis lupus familiaris
[33] = system: Rattus norvegicus; experiment: Compound was evaluated for diuretic activity administered orally in female rats measured as milliequivalents of Na+x 100 / cage at 9 mg/kg; assay type: functional, Urine; settings: route oral
[34] = system: Rattus norvegicus; experiment: Compound was evaluated for diuretic activity administered orally in female rats measured as milliequivalents of Cl-+x 100 / cage at 27 mg/kg; assay type: functional, Urine; settings: route oral
[35] = system: Canis familiaris; experiment: Compound was evaluated for diuretic activity, administered orally in female mongrel dogs (5 mg/kg) measured as milliequivalents of Cl-; assay type: functional, Canis lupus familiaris, Urine
[36] = system: Canis familiaris; experiment: Compound was evaluated for diuretic activity, administered orally in female mongrel dogs (5 mg/kg) measured as milliequivalents of K; assay type: functional, Canis lupus familiaris, Urine
[37] = system: Pan troglodytes; experiment: Compound was evaluated for diuretic activity in chimpanzee measured as increase in volume of urine at 1 mg/kg; assay type: functional
[38] = system: Rattus norvegicus; experiment: Compound was evaluated for diuretic activity administered orally in female rats measured as milliequivalents of Cl-x 100 / cage at 9 mg/kg; assay type: functional, Urine; settings: route oral
[39] = system: Rattus norvegicus; experiment: Compound was evaluated for diuretic activity administered orally in female rats measured as milliequivalents of K+x 100 / cage at 9 mg/kg; assay type: functional, Urine; settings: route oral
[40] = system: Rattus norvegicus; experiment: Compound was evaluated for diuretic activity administered orally in female rats measured as milliequivalents of Cl-x 100 / cage at 3 mg/kg; assay type: functional, Urine; settings: route oral
[41] = Volume of urine at 27 mg/kg; assay type: ADME, organism-based; set-up: dose 27 mg/kg; settings: in vivo
[42] = system: Canis familiaris; experiment: Compound was evaluated for diuretic activity, in female mongrel dogs by measuring amount of K+ in urine after iv administration of 5 mg/kg (control/compound treatment results) Control = 5; assay type: functional, Canis lupus familiaris
[43] = system: Canis familiaris; experiment: Compound was evaluated for diuretic activity, administered orally in female mongrel dogs (5 mg/kg) measured as milliequivalents of Na; assay type: functional, Canis lupus familiaris, Urine
[44] = volume of urine at 9 mg/kg; assay type: ADME, organism-based; set-up: dose 9 mg/kg; settings: in vivo
[45] = volume of urine at 3 mg/kg; assay type: ADME, organism-based; set-up: dose 3 mg/kg; settings: in vivo
[46] = volume of urine at 81 mg/kg; assay type: ADME, organism-based; set-up: dose 81 mg/kg; settings: in vivo
[47] = organism: Canis familiaris; experiment: as §1; assay type: functional, Canis lupus familiaris
[48] = system: Pan troglodytes; experiment: Compound was evaluated for diuretic activity in chimpanzee measured as increase in the number of microequivalents of Cl- electrolyte/min at 1.5 mg/kg; assay type: functional, Urine
[49] = volume of urine at 27 mg/kg; assay type: ADME, organism-based; set-up: dose 27 mg/kg; settings: in vivo
[50] = system: Canis familiaris; experiment: Compound was evaluated for diuretic activity, in female mongrel dogs by measuring amount of Na+ in urine after iv administration of 5 mg/kg (control/compound treatment results) Control = 59; assay type: functional, Canis lupus familiaris
[51] = system: Canis familiaris; experiment: Compound was evaluated for diuretic activity, in female mongrel dogs by measuring amount of Cl- in urine after iv administration of 5 mg/kg (control/compound treatment results) Control = 5; assay type: functional, Canis lupus familiaris
[52] = system: Pan troglodytes; experiment: Compound was evaluated for diuretic activity in chimpanzee measured as increase in the number of microequivalents of Na+ /min at 1 0.5 mg/kg; assay type: functional, Urine
[53] = system: Pan troglodytes; experiment: Compound was evaluated for diuretic activity in chimpanzee measured as increase in the number of microequivalents of K+ /min at 1.5 mg/kg; assay type: functional, Urine
[54] = system: Canis familiaris; experiment: Compound was evaluated for diuretic activity, in female mongrel dogs by measuring amount of K+ in urine after iv administration of 5 mg/kg (control/compound treatment results) Control = 13; assay type: functional, Canis lupus familiaris
[55] = system: Pan troglodytes; experiment: Compound was evaluated for diuretic activity in chimpanzee measured as clearance of […] and urate after intra venous administration of.1 5 mg/kg.; assay type: functional, Urine

| Compound | Increase [4] | Increase [6] | Increase in volume [7] | Delta C urate / delta C insulin [9] | Increase [11] | Activity [17] | Activity [18] | Activity [19] | Urine volume [21] | Activity [26] | Activity [29] | Activity [30] | Activity [31] | Activity [33] | Activity [34] | Activity [35] | Activity [36] | Increase in volume [37] | Activity [38] | Activity [39] | other results |
| --- | --- | --- | --- | --- | --- | --- | --- | --- | --- | --- | --- | --- | --- | --- | --- | --- | --- | --- | --- | --- | --- |
| CCC1(CC)C(=O)c2cc(OCC(=O)O)c(C)c(C)c2C1=O | 32 | 103 | 0.6 mL/min | 0.045 | 120 | – | – | – | – | – | – | – | – | – | – | – | – | – | – | – | Delta C urate / delta C insulin [1]: 0.258; Increase [2]: 243; Increase [3]: 46; Increase [5]: 288; Activity [8]: 106 u equiv min-1; Activity [10]: 21 u equiv min-1; Activity [12]: 42 u equiv min-1; Increase in volume [13]: 2.2 mL/min; Urine volume [14]: 2 mL/min |
| Cc1c(OCC(=O)O)cc2c(c1Cl)C(=O)C1(CCCC1)C2=O [(ACYLARYLOXY)ACETIC ACID] | 39 | 170 | -0.5 mL/min | 0.053 | 211 | 35 | 47 | 23 | 5 mL/min | 14 | 32 | 29 | 61 | 26 | 30 | 3 | 1 | 1.1 mL/min | 15 | 30 | Increase [15]: 59; Increase [16]: 117; Urine volume [20]: 29 mL; Urine volume [22]: 253 mL; Urine volume [23]: 29 mL; Activity [24]: 305 u equiv min-1; Delta C urate / delta C insulin [25]: 0.088; Increase [27]: 37; Urine volume [28]: 29 mL; Activity [32]: 245 u equiv min-1; Activity [40]: 10; Urine volume [41]: 33 mL; Activity [42]: 23 u equiv min-1; Activity [43]: 2 |
| NS(=O)(=O)c1cc2c(cc1Cl)NCNS2(=O)=O [HYDROCHLOROTHIAZIDE] | 93 | 144 | 1 mL/min | -0.015 | 198 | 168 | 154 | 50 | 3 mL/min | 127 | 61 | 61 | 163 | 133 | 191 | 7 | 18 | 1.8 mL/min | 143 | 33 | Urine volume [44]: 30 mL; Urine volume [45]: 37 mL; Urine volume [46]: 33 mL; Volume of urine [47]: 25; Increase [48]: 187; Urine volume [49]: 32 mL; Activity [50]: 193 u equiv min-1; Activity [51]: 11 u equiv min-1; Increase [52]: 275; Activity [40]: 146; Increase [53]: 25; Activity [54]: 27 u equiv min-1; Activity [43]: 50; Delta C urate / delta C insulin [55]: 0.01 |
